Test results from US7932246B2, “Histone deacetylase inhibitors” (Chroma Therapeutics Ltd., priority 2005, dated 2011).
pIC50: −log10 of the molar value.

Columns and labels:
[1] = molecular target: histone deacetylase activity (HeLa nuclear extract); experiment: HDAC fluorescent activity assay (Biomol, Fluor de Lys substrate); type: biochemical; conditions: IC50 range
Method: The ability of compounds to inhibit histone deacetylase activities was measured using the commercially available HDAC fluorescent activity assay from Biomol. In brief, the Fluor de Lys™ substrate, a lysine with an epsilon-amino acetylation, is incubated with the source of histone deacetylase activity (HeLa nuclear extract) in the presence or absence of inhibitor. Deacetylation of the substrate sensitises the substrate to Fluor de Lys™ developer, which generates a fluorophore.
Data are expressed as a percentage of the control, measured in the absence of inhibitor, with background signal being subtracted from all samples, as follows:— % activity=[(S^i−B)/(S^o−B)]×100 where S^i is the signal in the presence of substrate, enzyme and inhibitor, S^o is the signal in the presence of substrate, enzyme and the vehicle in which the inhibitor is dissolved, and B is the background signal measured in the absence of enzyme.
Histone deacetylase activity from crude nuclear extract derived from HeLa cells was used for screening. The preparation, purchased from 4C (Seneffe, Belgium), was prepared from HeLa cells harvested whilst in exponential growth phase. The nuclear extract is prepared according to Dignam JD1983 Nucl. Acid. […] The final buffer composition was 20 mM Hepes, 100 mM KCl, 0.2 mM EDTA, 0.5 mM DTT, 0.2 mM PMSF and 20% (v/v) glycerol.

HeLa cells = experiment: HeLa cell inhibition assay (SRB cell viability); type: cell-based; conditions: Homo sapiens, HeLa, 72 h, IC50 range
Method: HeLa cells growing in log phase were harvested and seeded at 1000 cells/well (200 μl final volume) into 96-well tissue culture plates. Following 24 h of cell growth cells were treated with compounds (final concentration of 20 μM). Plates were then re-incubated for a further 72 h before a sulphorhodamine B (SRB) cell viability assay was conducted according to Skehan 1990 J Natl Canc Inst 82, 1107-1112.
(§1) Data were expressed as a percentage inhibition of the control, measured in the absence of inhibitor, as follows:— % inhibition=100−[(S^i/S^o)×100] where S^i is the signal in the presence of inhibitor and S^o is the signal in the presence of DMSO.
IC50 values were determined by non-linear regression analysis, after fitting the results of eight data points to the equation for sigmoidal dose response with variable slope (% activity against log concentration of compound), using Graphpad Prism software.
(§2) IC50 results were allocated to one of 3 ranges as follows: […]

U937 = U937 cell inhibition assay (WST-1 cell viability); type: cell-based; conditions: Homo sapiens, U-937; U937 cells, 72-96 h, WST-1 assay, IC50 range
Method: (§3) Cancer cell lines (U937 and HUT) growing in log phase were harvested and seeded at 1000-2000 cells/well (100 μl final volume) into 96-well tissue culture plates. Following 24 h of growth cells were treated with compound. Plates were then re-incubated for a further 72-96 h before a WST-1 cell viability assay was conducted according to the suppliers (Roche Applied Science) instructions.
as §1
(§4) Dose response curves were generated from 8 concentrations (top final concentration 10 μM, with 3-fold dilutions), using 6 replicates.
(§5) IC50 values were determined by non-linear regression analysis, after fitting the results to the equation for sigmoidal dose response with variable slope (% activity against log concentration of compound), using Graphpad Prism software.
as §2

HUT = HUT cell inhibition assay (WST-1 cell viability); type: cell-based; conditions: HUT cells, 72-96 h, WST-1 assay, IC50 range
Method: as §3, §1, §4, §5, §2

| SMILES | pIC50 [1] | pIC50 (HeLa cells) | pIC50 (U937) | pIC50 (HUT) |
| --- | --- | --- | --- | --- |
| O=C(NO)c1cnc(N2CC3C(C2)C3N2CCOCC2)nc1 (stereo not drawn) [Example 62, N-Hydroxy 2-(6-morpholin-4-yl-3-azabicyclo[3.1.0]hex-3-yl)pyrimidine-5-carboxamide] | 6.00 to 7.00 | < 5.48 | < 5.48 | 5.48 to 6.48 |
| O=C(NO)c1cnc(N2CC3C(C2)C3N(Cc2cccnc2)Cc2ccc3ccccc3c2)nc1 (stereo not drawn) [Example 58, N-Hydroxy 2-[6-(naphthalen-2-ylmethylpyridin-3-ylmethylamino)-3-aza-bicyclo[3.1.0]hex-3-yl]pyrimidine-5-carboxamide] | 6.00 to 7.00 | 5.48 to 6.48 | 5.48 to 6.48 | 5.48 to 6.48 |
| O=C(NO)c1cnc(N2CC3C(C2)C3NC(=O)C2(c3ccccc3)CC2)nc1 (stereo not drawn) [Example 9, N-Hydroxy 2-(6-{[(1-phenylcyclopropyl)carbonyl]amino}-3-azabicyclo[3.1.0]hex-3-yl)pyrimidine-5-carboxamide] | > 7.00 | 5.48 to 6.48 | 5.48 to 6.48 | 5.48 to 6.48 |
| O=C(NO)c1cnc(N2CC3C(C2)C3NCc2ccc(Cl)cc2)nc1 (stereo not drawn) [Example 30, N-Hydroxy 2-{6-[(4-chlorobenzyl)amino]-3-azabicyclo[3.1.0]hex-3-yl}pyrimidine-5-carboxamide] | > 7.00 | > 6.48 | > 6.48 | > 6.48 |
| O=C(NO)c1cnc(N2CC3C(C2)C3NCc2ccccc2)nc1 (stereo not drawn) [Example 33, N-Hydroxy 2-[6-(benzylamino)-3-azabicyclo[3.1.0]hex-3-yl]pyrimidine-5-carboxamide] | > 7.00 | > 6.48 | > 6.48 | > 6.48 |
| O=C(NO)c1cnc(N2CC3C(C2)C3N(CCN2CCCCC2)S(=O)(=O)c2ccc3ccccc3c2)nc1 (stereo not drawn) [Example 53, N-Hydroxy 2-{6-[(naphthalene-2-sulfonyl)-(2-piperidin-1-ylethyl)amino]-3-azabicyclo[3.1.0]hex-3-yl}pyrimidine-5-carboxamide] | > 7.00 | > 6.48 | > 6.48 | > 6.48 |
| O=C(NO)c1cnc(N2CC(NS(=O)(=O)c3ccc4ccccc4c3)C2)nc1 [Example 70, N-Hydroxy 2-{3-[(2-naphthylsulfonyl)amino]azetidin-1-yl}pyrimidine-5-carboxamide] | > 7.00 | < 5.48 | < 5.48 | 5.48 to 6.48 |
| O=C(NO)c1cnc(N2CC3C(C2)C3NS(=O)(=O)c2ccc(OC(F)(F)F)cc2)nc1 (stereo not drawn) [Example 4, N-Hydroxy 2-(6-{[(4-trifluoromethoxyphenyl)sulfonyl]amino}-3-azabicyclo[3.1.0]hex-3-yl)pyrimidine-5-carboxamide] | > 7.00 | 5.48 to 6.48 | > 6.48 | > 6.48 |
| O=C(CCCCc1ccccc1)NC1C2CN(c3ncc(C(=O)NO)cn3)CC21 (stereo not drawn) [Example 7, N-Hydroxy 2-[6-(5-phenylpentanoylamino)-3-azabicyclo[3.1.0]hex-3-yl]pyrimidine-5-carboxamide] | > 7.00 | 5.48 to 6.48 | 5.48 to 6.48 | 5.48 to 6.48 |

The next lines start with results.

| pIC50 [1] | pIC50 (HeLa cells) | pIC50 (U937) | SMILES | pIC50 (HUT) |
| --- | --- | --- | --- | --- |
| > 7.00 | 5.48 to 6.48 | 5.48 to 6.48 | O=C(NO)c1cnc(N2CC3C(C2)C3N(Cc2ccc3ccccc3c2)C(=O)CCc2cccnc2)nc1 (stereo not drawn) [Example 61, N-Hydroxy 2-{6-[naphthalen-2-ylmethyl-(3-pyridin-3-yl-propionyl)amino]-3-aza-bicyclo[3.1.0]hex-3-yl}pyrimidine-5-carboxamide] | > 6.48 |
| > 7.00 | 5.48 to 6.48 | 5.48 to 6.48 | O=C(NO)c1cnc(N2CC3C(C2)C3N2Cc3ccccc3CC2=O)nc1 (stereo not drawn) [Example 65, N-Hydroxy 2-[6-(3-oxo-3,4-dihydroisoquinolin-2(1H)-yl)-3-azabicyclo[3.1.0]hex-3-yl]pyrimidine-5-carboxamide] | 5.48 to 6.48 |
| > 7.00 | > 6.48 | > 6.48 | O=C(NO)c1cnc(N2CC3C(C2)C3NCc2ccc3cc(F)ccc3n2)nc1 (stereo not drawn) [Example 44, N-Hydroxy 2-(6-{[(6-fluoroquinolin-2-yl)methyl]amino}-3-azabicyclo[3.1.0]hex-3-yl)pyrimidine-5-carboxamide] | > 6.48 |
| > 7.00 | 5.48 to 6.48 | 5.48 to 6.48 | CC(C(=O)NC1C2CN(c3ncc(C(=O)NO)cn3)CC21)c1ccccc1 (stereo not drawn) [Example 10, N-Hydroxy 2-{6-[(2-phenylpropanoyl)amino]-3-azabicyclo[3.1.0]hex-3-yl}pyrimidine-5-carboxamide] | 5.48 to 6.48 |
| > 7.00 | > 6.48 | > 6.48 | O=C(NO)c1cnc(N2CC3C(C2)C3NCc2ccc3ccccc3n2)nc1 (stereo not drawn) [Example 43, N-Hydroxy 2-{6-[(quinolin-2-ylmethyl)amino]-3-azabicyclo[3.1.0]hex-3-yl}pyrimidine-5-carboxamide] | > 6.48 |
| > 7.00 | 5.48 to 6.48 | 5.48 to 6.48 | CCCCc1ccc(CNC2C3CN(c4ncc(C(=O)NO)cn4)CC32)cc1 (stereo not drawn) [Example 23, N-Hydroxy 2-[6-(4-butylbenzylamino)-3-azabicyclo[3.1.0]hex-3-yl]pyrimidine-5-carboxamide] | > 6.48 |
| > 7.00 | 5.48 to 6.48 | 5.48 to 6.48 | O=C(NO)c1cnc(N2CC3C(CNCc4ccccc4)C3C2)nc1 (stereo not drawn) [Example 72, N-Hydroxy 2-{6-[(benzylamino)methyl]-3-azabicyclo[3.1.0]hex-3-yl}pyrimidine-5-carboxamide] | > 6.48 |
| > 7.00 | 5.48 to 6.48 | 5.48 to 6.48 | O=C(NO)c1cnc(N2CC3C(C2)C3Nc2ccc3ccccc3n2)nc1 (stereo not drawn) [Example 67, N-Hydroxy 2-[6-(quinolin-2-ylamino)-3-azabicyclo[3.1.0]hex-3-yl]pyrimidine-5-carboxamide] | > 6.48 |
| > 7.00 | > 6.48 | > 6.48 | O=C(NO)c1cnc(N2CC3C(C2)C3NCc2cc(C(F)(F)F)cc(C(F)(F)F)c2)nc1 (stereo not drawn) [Example 35, N-Hydroxy 2-{6-[(3,5-bistrifluoromethylbenzyl)amino]-3-azabicyclo[3.1.0]hex-3-yl}pyrimidine-5-carboxamide] | > 6.48 |
| > 7.00 | > 6.48 | > 6.48 | CCN(CC)CCC(=O)N(Cc1ccc2ccccc2c1)C1C2CN(c3ncc(C(=O)NO)cn3)CC21 (stereo not drawn) [Example 59, N-Hydroxy 2-{6-[(3-diethylaminopropionyl)naphthalen-2-ylmethylamino]-3-azabicyclo[3.1.0]hex-3-yl}-pyrimidine-5-carboxamide] | > 6.48 |
| > 7.00 | 5.48 to 6.48 | 5.48 to 6.48 | O=C(NO)c1cnc(N2CC3CN(S(=O)(=O)c4ccc(OC(F)(F)F)cc4)CC3C2)nc1 (stereo not drawn) [Example 82, N-Hydroxy 2-[5-{[4-(trifluoromethoxy)phenyl]sulfonyl}hexahydropyrrolo[3,4-c]pyrrol-2(1H)-yl]pyrimidine-5-carboxamide] | 5.48 to 6.48 |
| > 7.00 | > 6.48 | 5.48 to 6.48 | CCN(CC)CCN(Cc1ccc2ccccc2c1)C1C2CN(c3ncc(C(=O)NO)cn3)CC21 (stereo not drawn) [Example 56, N-Hydroxy 2-{6-[(2-diethylaminoethyl)naphthalen-2-ylmethylamino]-3-azabicyclo[3.1.0]hex-3-yl}pyrimidine-5-carboxamide] | > 6.48 |
